Patent US7365191B2, “Type of oligosaccharides and their sulfate derivatives” (Shanghaimed Co., Ltd, priority 2001, dated 2008)

Key:
U14 tumor cells = test: Inhibition of U14 tumor implanted in mice; details: for inhibition (%) / quotient of noumenal tumor (%): U14 implanted mice; for quotient of noumenal tumor (%): ±SD
Description: Thus, the inhibition of tumor cells by the said oligosaccharides was tested using implanted tumor cells in mice. • (1) Tests of the said Oligosaccharides and their Sulfates on Mice in which Tumor Cells were Implanted. A. Materials and Methods
Cell line for the tests: U14 cell line was procured from The Tumor Research Group, The Institute of Chinese Herbal Medicine, Chinese Academy of Traditional Chinese Medicine;
Animals for the tests: 70 Kunming male mice (weight 20±2 g, grade II) were obtained from the Experimental Animal Center, the Chinese Academy of Medicine.
Medicine for control test: Cyclophosphamide was obtained from Shanghai Hualian Pharmaceutical Ltd, permit number 012034, 1995, Shanghai.
Mice grouping and administration: • a. U14 cell line group: physical saline, IP, 0.2 mL/d×10 d • b. Group treated with hexasaccharide 18: IP 10 mg/kg×10 d, 0.2 mL/d • c. Group treated with octyl hexaoside 18′: IP 10 mg/kg×10 d, 0.2 mL/d • d. Group treated with heptasaccharide 24: IP 10 mg/kg×10 d, 0.2 mL/d • e. Group treated with sulfated hexaose 25: IP 10 mg/kg×10 d, 0.2 mL/d • f. Group treated with cyclophosphamide: IP, 70 mg/kg×10 d, 0.1 mL/d (Cyclophosphamide was given to the mice by intraperitoneal at 24 h after the planting. After 48 h of the 1st injection, the 2nd injection was given, and after 48 h of the 2nd injection, the last injection was given). Test: U14 cells obtained from U14 mouse were diluted and counted. Each mouse was implanted with 0.2 ml (corresponding to 4×10^6 cells). A total of sixty mice were implanted. B. Test Results
1 h post administration of the last dose, the mice were weighed. The right-upper arm of the mice was cut after sterilization, and the tumor section was removed. The quotient of noumenal tumor (%) and inhibition (%) were calculated.

spleen B lymphocytes = test: Immune enhancing activity: 3H-thymidine incorporation of spleen B lymphocytes from treated C57 mice, stimulated with Bal/bc lymphocytes; format: in vivo; details: 0.1 mL/d × 8d
Description: a. Medicine and reagents: synthetic lentinan hexaose 18, synthetic lentinan methyl α-heptaoside 24, synthetic lentinan octyl hexaoside 18′, lentinan (brand: Tian Di Xin) is produced by Nanjing Zhenzhong Biotech Ltd.
b. Animals: C57 mice were provided by Animal Center, Academia Sinica, weighing 20±2 g.
c. grouping and administration: the 50 mice were randomly allocated to 10 groups according to weight
The mice were injected IP with different doses of lentinan oligosaccharides listed above. […] Then the spleen B lymphocytes were extracted. The following experiment was then performed with the extracted lymphocytes: the 10^6 B cells were transferred to 96-well “U” shaped bottom plate, then the lymphocytes of Bal/bc mice were used as antigens to stimulate the B cells. After 4 days, ^3H-Thymidine was intermingled with the system and the B cells were collected 18 hours after. The isotopic incorporation was assessed by scintillation counting. Compared with positive control and minus control, the immuno-enhanced effect of these oligosaccharides was evaluated.

[1] = tested on: leukocyte infiltrate in air pouch; test: Thioglycollate-induced air pouch inflammation in mice; format: in vivo, mouse; details: dose 25 mg/kg subq.
Description: Test method: Subcutaneous air pouches were formed on the backs of mice by injecting 5 mL of sterile air below the skin of a shaved area between the scapulae of an anaesthetized mouse. After 2 days post-injection the pouch was reinflated by the injection of 2.5 mL of air. Inflammation was induced on day 6 by injecting directly into the pouch 1.0 mL of 56 mg/mL thioglycollate or 1.0 mL of saline as a control. Approximately 17-20 h after thioglycollate injection, the animals were killed, and the cellular contents of the pouch retrieved by the injection of 2.5 mL of PBS/5% FCS. The sulfated octyl hexaoside 25 was tested for its ability to inhibit the inflammatory reaction by being injected subq. in a separate site immediately following administration of the thioglycollate. Prednisolone was used as a control anti-inflammatory drug, and was injected subq. at 25 mg/kg. The total cellular contents of each pouch were determined using a Coulter Counter and different leukocyte subpopulations were assessed by immunofluorescent flow cytometry.

[2] = IP 10 mg/kg×10 d (dose of 17 not given)
[3] = IP 10 mg/kg, relative to control

Compound: CCCCCCCCOC1OC(COC2OC(CO)C(O)C(O)C2O)C(O)C(OC2OC(CO)C(O)C(OC3OC(COC4OC(CO)C(O)C(O)C4O)[C@@H](O)C(OC4OC(CO)C(O)C(O)C4O)C3O)C2O)C1O (stereo partly shown) [18′]
- inhibition (%) (U14 tumor cells; [2]): 58.43%
- quotient of noumenal tumor (%) (U14 tumor cells; [2]): 1.54 ± 0.56 %
- 3H-TdR incorporation (spleen B lymphocytes; IP 1 mg/kg, control 3394): 5547
- enhancement rate (%) (spleen B lymphocytes; IP 1 mg/kg, control = 100): 163%
- 3H-TdR incorporation (spleen B lymphocytes; IP 10 mg/kg, control 3045): 6082
- enhancement rate (%) (spleen B lymphocytes; [3]): 200%

Compound: OCC1OC(OCC2OC(O)C(O)C(OC3OC(CO)C(O)C(OC4OC(COC5OC(CO)C(O)C(O)C5O)[C@@H](O)C(OC5OC(CO)C(O)C(O)C5O)C4O)C3O)C2O)C(O)C(O)C1O (stereo partly shown) [compound 18]
- inhibition (%) (U14 tumor cells; [2]): 29.41%
- quotient of noumenal tumor (%) (U14 tumor cells; [2]): 2.63 ± 0.90%
- 3H-TdR incorporation (spleen B lymphocytes; IP 1 mg/kg, control 3394): 5497
- enhancement rate (%) (spleen B lymphocytes; IP 1 mg/kg, control = 100): 162%
- 3H-TdR incorporation (spleen B lymphocytes; IP 10 mg/kg, control 3045): 6084
- enhancement rate (%) (spleen B lymphocytes; [3]): 200%

Compound: COC1OC(CO)[C@@H](O)C(O[C@H]2OC(CO[C@@H]3OC(CO)[C@@H](O)C(O)C3O)[C@@H](O)C(O[C@@H]3OC(CO)[C@@H](O)C(O[C@H]4OC(CO[C@@H]5OC(CO)[C@@H](O)C(O)C5O)[C@@H](O)C(O[C@@H]5OC(CO)[C@@H](O)C(O)C5O)C4O)C3O)C2O)C1O (stereo partly shown) [compound 24]
- inhibition (%) (U14 tumor cells; [2]): 41.21%
- quotient of noumenal tumor (%) (U14 tumor cells; [2]): 2.54 ± 1.89%
- 3H-TdR incorporation (spleen B lymphocytes; IP 1 mg/kg, control 3394): 5546
- enhancement rate (%) (spleen B lymphocytes; IP 1 mg/kg, control = 100): 163%
- 3H-TdR incorporation (spleen B lymphocytes; IP 10 mg/kg, control 3045): 5087
- enhancement rate (%) (spleen B lymphocytes; [3]): 167%

Compound: O=P1(N(CCCl)CCCl)NCCCO1 (stereo not shown) [cyclophosphamide, Cyclophosphamide, reference compound]
- inhibition (%) (U14 tumor cells; cyclophosphamide IP 70 mg/kg): 43.89%
- quotient of noumenal tumor (%) (U14 tumor cells; cyclophosphamide IP 70 mg/kg): 1.86 ± 0.73 %
- weight (U14 tumor cells; mouse weight 1 h after last dose, cyclophosphamide IP 70 mg/kg): 28.00 ± 1.78 g

Compound: C[C@]12C=CC(=O)C=C1CC[C@@H]1[C@@H]2[C@@H](O)C[C@@]2(C)[C@H]1CC[C@]2(O)C(=O)CO [prednisolone, Prednisolone]
- leukocyte infiltrate in air pouch in comparison to the control [1]: 56±14%
